These results are taken from article PMC4280898, “Diazido Mixed-Amine Platinum(IV) Anticancer Complexes Activatable by Visible-Light Form Novel DNA Adducts” (Chemistry (Weinheim an Der Bergstrasse, Germany), 2013).

For assay [1], the system named is 212 bp NdeI–HpaI fragment of pSP73KB DNA. Nature of the assay: Transcription mapping of DNA adducts (T7 RNA polymerase). The class given is biochemical. The following applies: in the dark; rb=0.01. The method, then: Sequence preference of DNA adducts: Transcription mapping experiments were performed to determine the DNA binding sites for Pt complexes. The experiments were carried out using a linear 212 bp DNA fragment (sequence in Figure 9 B), randomly modified by transplatin (8), cisplatin (7), 5 or 6 in the dark or by 1 and 2 photoactivated with blue light (420 nm) at rb=0.01 (rb is defined as the number of the molecules of platinum complex coordinated per nucleotide residue), for RNA synthesis by T7 RNA polymerase (Figure 9 A, lanes 8, 7, 5, 6, 1 and 2, respectively). RNA synthesis on the template modified by the platinum complexes produced fragments of defined sizes (Figure 9 A), which indicate the sites where RNA synthesis was prematurely terminated. It should be noted that RNA synthesis by T7 RNA polymerase is prematurely terminated only due to the platinum adducts on the template strand.[23] […] The ability to bind to A and C sites is consistent with the result from AMP and CMP binding experiments (Figure S18 in the Supporting Information).
Figure 9 Inhibition of RNA synthesis by T7 RNA polymerase on the NdeI–HpaI fragment of pSP73KB plasmid DNA modified by complexes 5 or 6, cisplatin (7) or transplatin (8) in the dark, or with photoactivated 1 or 2 (420 nm light). A) Autoradiogram of a polyacrylamide (6 %)/urea (8 M) sequencing gel. […]
assayed by differential pulse polarography for free, unbound platinum.[16] The amount of platinum bound to DNA was calculated by subtracting the amount of free (unbound) platinum from the total amount of platinum present in the reaction. […]
This fragment contained T7 RNA polymerase promoter (in the upper strand close to its 3'-end). […] The fragments produced in RNA synthesis on the template modified by the platinum complexes were analysed by a 6% polyacrylamide/8M urea sequencing gel.
Quantification of DNA adducts […]
(§1) Platinum associated with DNA was assessed by flameless atomic absorption […]
(§2) Quantification of DNA interstrand cross-links […]

Assay [2] deals with calf thymus DNA. Nature of the assay: Characterisation of DNA adducts with thiourea. The class given is binding. The following applies: in the dark; for Total adducts displaced from DNA by thiourea after 24 h: 10 mM thiourea; for Bifunctional adducts after 24 h: thiourea probe. On the procedure:
Characterisation of DNA adducts: The experiments aimed at the characterisation of DNA adducts of photoactivated 1 or 2, and of 5 or 6 in the dark were conducted employing thiourea as a probe of DNA monofunctional adducts of trans-platinum(II) compounds[24] (for details, see the Supporting Information). After 24 h, 55(±10), 48(±2), 66(±1) and 64(±3) % of the total adducts of platinum complexes 1, 2, 5 and 6, respectively, were displaced from DNA by thiourea (Figure 10). Thus, only 45, 52, 34 and 36 % of DNA adducts formed by 1 or 2 (photoactivated) and 5 or 6 (in the dark), respectively, had evolved to bifunctional lesions after this time interval.
Figure 10 Quantification of DNA adducts by thiourea. Dependence of rb on incubation time for calf thymus DNA modified by photoactivated: A) 1, or B) 2 (420 nm light); and in the dark with: C) 5, or D) 6. Reactions were stopped with thiourea (10 mM; 10 min, 310 K; ▴) or without thiourea (▪), and the platinum associated with DNA was assessed. […]
assayed by differential pulse polarography for free, unbound platinum.[16] The amount of platinum bound to DNA was calculated by subtracting the amount of free (unbound) platinum from the total amount of platinum present in the reaction.
Transcription mapping of DNA adducts in vitro
The 212-bp DNA fragment used was yielded from cutting of pSP73KB DNA by NdeI and HpaI restriction endonucleases (a substantial part of the nucleotide sequence is […]
This fragment contained T7 RNA polymerase promoter (in the upper strand close to its 3'-end). This linear DNA fragment was randomly modified by transplatin (8), cisplatin (7), 5 and 6 in the dark and by 1 and 2 photoactivated with 420 nm light at rb = 0.01, for RNA synthesis by T7 RNA polymerase. The fragments produced in RNA synthesis on the template modified by the platinum complexes were analysed by a 6% polyacrylamide/8M urea sequencing gel.
Quantification of DNA adducts
Double-helical calf thymus DNA at a concentration of 32 µg/mL was incubated with 5 or 6 in the dark, or alternatively, DNA mixed with 1 or 2 was irradiated for 30min (λirrad = 420 nm) and then incubated in the dark in 10 mM NaClO4 at 310 K. At various time intervals the aliquots were withdrawn and the platination reaction was stopped by addition of 10 mM thiourea, samples were incubated for 10 min at […] and then quickly cooled to 253 K. In parallel experiments, 100 mM NaCl was added to the samples instead of thiourea and samples were immediately cooled to 253 K.
as §1, §2

“And” between values parts separate entries of the source, which are not always exact repeats. Identical values can stand only once.

For `C[NH2+][Pt@SP3-2]([Cl])([Cl])[n+]1ccsc1` [Complex 6, trans-[PtCl2(MA)(Tz)]], the Sequence specificity result in assay [1] was “stop sites mainly at G and C and G, C”. Further, in assay [2], the “Total adducts displaced from DNA by thiourea after 24 h” value was 64(±3) %; the “Bifunctional adducts after 24 h” value was 36% and 36±2%.

For the molecule `C[NH2+][Pt@SP3-2]([Cl])([Cl])[n+]1ccccc1` [Complex 5, trans-[PtCl2(MA)(Py)]], the Sequence specificity entry in assay [1] was “stop sites mainly at G and C and G, C”. In addition, in assay [2], the “Total adducts displaced from DNA by thiourea after 24 h” value is given as 66(±1) %; the “Bifunctional adducts after 24 h” value was 34% and 34±1%.
